Laboratory results as given in US10112937B2, “P2X7 modulators and methods of use” (Janssen Pharmaceutica NV, priority 2013, dated 2018).
Where a name gives a salt, the structure may show the parent alone.

What follows are compounds tested against human P2X7 (Homo sapiens (Human), UniProt Q99572) (assay: P2X7 antagonism in human PBMCs (IL-1β release after LPS + Bz-ATP, ELISA)). Conditions: 10 μM test compound, human PBMCs, LPS + Bz-ATP.
Format: cell-based

Chain of human P2X7 (Q99572 whole entry): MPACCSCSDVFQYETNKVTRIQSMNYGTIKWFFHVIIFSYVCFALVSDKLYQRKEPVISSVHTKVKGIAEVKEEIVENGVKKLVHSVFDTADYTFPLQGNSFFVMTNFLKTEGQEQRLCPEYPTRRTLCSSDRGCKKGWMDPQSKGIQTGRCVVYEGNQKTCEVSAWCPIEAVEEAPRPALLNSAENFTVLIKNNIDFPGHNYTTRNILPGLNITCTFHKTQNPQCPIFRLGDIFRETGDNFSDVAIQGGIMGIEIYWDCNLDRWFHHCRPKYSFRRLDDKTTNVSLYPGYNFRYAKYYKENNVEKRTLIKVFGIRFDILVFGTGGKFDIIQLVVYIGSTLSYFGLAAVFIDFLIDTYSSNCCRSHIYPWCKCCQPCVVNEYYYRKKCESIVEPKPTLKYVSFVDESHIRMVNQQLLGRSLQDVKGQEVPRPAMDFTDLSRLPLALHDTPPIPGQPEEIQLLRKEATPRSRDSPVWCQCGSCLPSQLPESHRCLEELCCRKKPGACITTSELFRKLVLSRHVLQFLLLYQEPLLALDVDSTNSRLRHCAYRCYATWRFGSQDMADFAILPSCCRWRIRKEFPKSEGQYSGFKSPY

With `Cc1ccnc(-n2nnc3c2CCN(C(=O)c2cccc(C(F)(F)F)c2Cl)[C@H]3C)n1` (single isomer, unassigned) [Example 439, (S*)-(2-chloro-3-(trifluoromethyl)phenyl)(4-methyl-1-(4-methylpyrimidin-2-yl)-6,7-dihydro-1H-[1,2,3]triazolo[4,5-c]pyridin-5(4H)-yl)methanone] the “PBMC 10 μM (% control)” value was 1.2 % control.

Same assay, conditions: human PBMCs, test compound 1 μM

In the case of `O=C(c1cccc(C(F)(F)F)c1Cl)N1CCc2c(-c3ccccn3)n[nH]c2C1` [Example 93, 6-{[2-Chloro-3-(trifluoromethyl)phenyl]carbonyl}-3-pyridin-2-yl-4,5,6,7-tetrahydro-2H-pyrazolo[3,4-c]pyridine-TFA salt], the “PBMC 1 μM (% control)” value is reported as 9.0 % control.

Same assay, conditions: human PBMCs, test compound 10 μM

Compared with `Cc1ccnc(-n2nnc3c2CCN(C(=O)c2cccc(C(F)(F)F)c2Cl)[C@@H]3C)c1` (single isomer, unassigned) [Example 185, (R*)-(2-chloro-3-(trifluoromethyl)phenyl)(4-methyl-1-(4-methylpyridin-2-yl)-6,7-dihydro-1H-[1,2,3]triazolo[4,5-c]pyridin-5(4H)-yl)methanone], `Cc1cc(C)nc(-n2nnc3c2CCN(C(=O)c2cccc(C(F)(F)F)c2Cl)C3C)c1` (centres unmarked) [Example 300, (2-chloro-3-(trifluoromethyl)phenyl)(1-(4,6-dimethylpyridin-2-yl)-4-methyl-6,7-dihydro-1H-[1,2,3]triazolo[4,5-c]pyridin-5(4H)-yl)methanone] is higher in “PBMC 10 μM (% control)” value: −3.7 % control for the first, −1.8 % control for the second.

First: O=C(c1cccc(C(F)(F)F)c1Cl)N1CCc2c(nnn2-c2ncccn2)C1 [Example 65, 5-{[2-Chloro-3-(trifluoromethyl)phenyl]carbonyl}-1-pyrimidin-2-yl-4,5,6,7-tetrahydro-1H-[1,2,3]triazolo[4,5-c]pyridine]
Second: Cc1c(C(=O)N2CCc3c(nnn3-c3ncccn3)[C@H]2C)cccc1C(F)(F)F (single isomer, unassigned) [Example 188, (R*)-(4-methyl-1-(pyrimidin-2-yl)-6,7-dihydro-1H-[1,2,3]triazolo[4,5-c]pyridin-5(4H)-yl)(2-methyl-3-(trifluoromethyl)phenyl)methanone]
The “PBMC 10 μM (% control)” value of the first is higher: 5.8 % control for the first, −0.7 % control for the second.

First: CCc1cccnc1-n1nnc2c1CCN(C(=O)c1cccc(C(F)(F)F)c1Cl)C2C (centres unmarked) [Example 254, (2-Chloro-3-(trifluoromethyl)phenyl)(1-(3-ethylpyridin-2-yl)-4-methyl-6,7-dihydro-1H-[1,2,3]triazolo[4,5-c]pyridin-5(4H)-yl)methanone]
Second: CC1c2nnn(-c3ncccc3F)c2CCN1C(=O)c1cccc(C(F)(F)F)c1Cl (centres unmarked) [Example 84, 5-{[2-Chloro-3-(trifluoromethyl)phenyl]carbonyl}-1-(3-fluoropyridin-2-yl)-4-methyl-4,5,6,7-tetrahydro-1H-[1,2,3]triazolo[4,5-c]pyridine]
The “PBMC 10 μM (% control)” value of the first is lower: 0.9 % control for the first, 8.5 % control for the second.

Going from `Cc1cc(-n2nnc3c2CCN(C(=O)c2ccc(Cl)c(C(F)(F)F)c2)[C@@H]3C)ncc1F` (single isomer, unassigned) [Example 365, (R*)-(4-chloro-3-(trifluoromethyl)phenyl)(1-(5-fluoro-4-methylpyridin-2-yl)-4-methyl-6,7-dihydro-1H-[1,2,3]triazolo[4,5-c]pyridin-5(4H)-yl)methanone] to `Cc1nc(-n2nnc3c2CCN(C(=O)c2cccc(C(F)(F)F)c2Cl)[C@@H]3C)ncc1F` (single isomer, unassigned) [Example 305, (R*)-(2-chloro-3-(trifluoromethyl)phenyl)(1-(5-fluoro-4-methylpyrimidin-2-yl)-4-methyl-6,7-dihydro-1H-[1,2,3]triazolo[4,5-c]pyridin-5(4H)-yl)methanone], the “PBMC 10 μM (% control)” value falls from 108.2 % control to 0.9 % control.

First: CC1CN(C(=O)c2cccc(C(F)(F)F)c2Cl)C(C)c2nnn(-c3ccccc3)c21 (centres unmarked) [Example 241, (2-Chloro-3-(trifluoromethyl)phenyl)(4,7-dimethyl-1-phenyl-6,7-dihydro-1H-[1,2,3]triazolo[4,5-c]pyridin-5(4H)-yl)methanone]
Second: CC1CN(C(=O)c2cccc(C(F)(F)F)c2Cl)C(C)c2nnn(-c3ccc(F)cc3)c21 (centres unmarked) [Example 238, (2-Chloro-3-(trifluoromethyl)phenyl)(1-(4-fluorophenyl)-4,7-dimethyl-6,7-dihydro-1H-[1,2,3]triazolo[4,5-c]pyridin-5(4H)-yl)methanone]
The “PBMC 10 μM (% control)” value of the first is higher: 6.5 % control for the first, −4.1 % control for the second.

Compared with `CC1c2nnn(-c3ncc(F)cn3)c2CCN1C(=O)c1cccc(Cl)c1Cl` (centres unmarked) [Example 174, (2,3-Dichlorophenyl)(1-(5-fluoropyrimidin-2-yl)-4-methyl-6,7-dihydro-1H-[1,2,3]triazolo[4,5-c]pyridin-5(4H)-yl)methanone], `Cc1ccnc(-n2nnc3c2CCN(C(=O)c2cccc(Cl)c2Cl)C3C)n1` (centres unmarked) [Example 225, (2,3-dichlorophenyl)(4-methyl-1-(4-methylpyrimidin-2-yl)-6,7-dihydro-1H-[1,2,3]triazolo[4,5-c]pyridin-5(4H)-yl)methanone] is lower in “PBMC 10 μM (% control)” value: 4.2 % control for the first, −1.0 % control for the second.

Going from `C[C@@H]1c2nnn(-c3ccc(F)cc3)c2C[C@H](C)N1C(=O)c1cccc(C(F)(F)F)c1Cl` [Example 287, (2-chloro-3-(trifluoromethyl)phenyl)((4R,6S)-1-(4-fluorophenyl)-4,6-dimethyl-6,7-dihydro-1H-[1,2,3]triazolo[4,5-c]pyridin-5(4H)-yl)methanone] to `C[C@H]1c2ncn(-c3ccc(F)cc3)c2CCN1C(=O)c1cccc(C(F)(F)F)c1Cl` (single isomer, unassigned) [Example 47], the “PBMC 10 μM (% control)” value rises from −4.1 % control to −1.1 % control.

First: O=C(c1ccc(Cl)cc1F)N1CCc2c(nnn2-c2cnccn2)C1 [Example 272, (4-chloro-2-fluorophenyl)(1-(pyrazin-2-yl)-6,7-dihydro-1H-[1,2,3]triazolo[4,5-c]pyridin-5(4H)-yl)methanone]
Second: CC1c2nnn(-c3cnccn3)c2CCN1C(=O)c1ccc(Cl)cc1F (centres unmarked) [Example 274, (4-chloro-2-fluorophenyl)(4-methyl-1-(pyrazin-2-yl)-6,7-dihydro-1H-[1,2,3]triazolo[4,5-c]pyridin-5(4H)-yl)methanone]
The “PBMC 10 μM (% control)” value of the first is lower: −7.6 % control for the first, −4.8 % control for the second.

Compared with `CC1c2nnn(-c3ncccc3F)c2C=CN1C(=O)c1cccc(C(F)(F)F)c1Cl` (centres unmarked) [Example 82, 5-{[2-Chloro-3-(trifluoromethyl)phenyl]carbonyl}-1-(3-fluoropyridin-2-yl)-4-methyl-4,5-dihydro-1H-[1,2,3]triazolo[4,5-c]pyridine], `CC1c2nnn(-c3cc[nH]n3)c2C=CN1C(=O)c1cccc(C(F)(F)F)c1Cl` (centres unmarked) [Example 86, 5-{[2-Chloro-3-(trifluoromethyl)phenyl]carbonyl}-4-methyl-1-(1H-pyrazol-3-yl)-4,5-dihydro-1H-[1,2,3]triazolo[4,5-c]pyridine] is higher in “PBMC 10 μM (% control)” value: 7.9 % control for the first, 13.0 % control for the second.

Going from `Cc1cc(-n2nnc3c2CCN(C(=O)c2ccnc(C(F)(F)F)c2F)C3C)ncn1` (centres unmarked) [Example 397, (3-fluoro-2-(trifluoromethyl)pyridin-4-yl)(4-methyl-1-(6-methylpyrimidin-4-yl)-6,7-dihydro-1H-[1,2,3]triazolo[4,5-c]pyridin-5(4H)-yl)methanone] to `Cc1cccc(-n2nnc3c2CCN(C(=O)c2cccc(C(F)(F)F)c2F)[C@@H]3C)n1` (single isomer, unassigned) [Example 386, (R*)-(2-fluoro-3-(trifluoromethyl)phenyl)(4-methyl-1-(6-methylpyridin-2-yl)-6,7-dihydro-1H-[1,2,3]triazolo[4,5-c]pyridin-5(4H)-yl)methanone], the “PBMC 10 μM (% control)” value rises from 64.7 % control to 107.5 % control.

Going from `C[C@H]1Cc2c(nnn2-c2ccn[nH]2)CN1C(=O)c1cccc(C(F)(F)F)c1Cl` (single isomer, unassigned) [Example 351, (S*)-(2-chloro-3-(trifluoromethyl)phenyl)(6-methyl-1-(1H-pyrazol-5-yl)-6,7-dihydro-1H-[1,2,3]triazolo[4,5-c]pyridin-5(4H)-yl)methanone] to `CC1Cc2c(nnn2-c2cc[nH]n2)CN1C(=O)c1cccc(C(F)(F)F)c1Cl` (centres unmarked) [Example 210, (2-chloro-3-(trifluoromethyl)phenyl)(6-methyl-1-(1H-pyrazol-3-yl)-6,7-dihydro-1H-[1,2,3]triazolo[4,5-c]pyridin-5(4H)-yl)methanone], the “PBMC 10 μM (% control)” value rises from 0.6 % control to 0.8 % control.

Going from `C[C@H]1Cc2c(nnn2-c2ccccc2)CN1C(=O)c1cccc(C(F)(F)F)c1Cl` [Example 288, (S)-(2-chloro-3-(trifluoromethyl)phenyl)(6-methyl-1-phenyl-6,7-dihydro-1H-[1,2,3]triazolo[4,5-c]pyridin-5(4H)-yl)methanone] to `C[C@H]1c2nnn(-c3cncnc3)c2CCN1C(=O)c1cccc(C(F)(F)F)c1Cl` [Example 333, (S)-(2-chloro-3-(trifluoromethyl)phenyl)(4-methyl-1-(pyrimidin-5-yl)-6,7-dihydro-1H-[1,2,3]triazolo[4,5-c]pyridin-5(4H)-yl)methanone], the “PBMC 10 μM (% control)” value rises from 4.4 % control to 6.9 % control.

First: C[C@H]1Cc2c(nnn2-c2ncc(F)cn2)CN1C(=O)c1ccnc(C(F)(F)F)c1F [Example 228, (S)-(3-fluoro-2-(trifluoromethyl)pyridin-4-yl)(1-(5-fluoropyrimidin-2-yl)-6-methyl-6,7-dihydro-1H-[1,2,3]triazolo[4,5-c]pyridin-5(4H)-yl)methanone]
Second: C[C@H]1c2nnn(-c3ncc(F)cn3)c2CCN1C(=O)c1cccc(C(F)(F)F)c1F (single isomer, unassigned) [Example 178, (S*)-(2-fluoro-3-(trifluoromethyl)phenyl)(1-(5-fluoropyrimidin-2-yl)-4-methyl-6,7-dihydro-1H-[1,2,3]triazolo[4,5-c]pyridin-5(4H)-yl)methanone]
The “PBMC 10 μM (% control)” value of the first is higher: −1.1 % control for the first, −4.7 % control for the second.

Same assay, conditions: test compound 10 μM, LPS 30 ng/ml + 0.5 mM Bz-ATP

Compared with `Cc1ccnc(-n2nnc3c2CCN(C(=O)c2cccc(C(F)(F)F)c2Cl)[C@@H]3C)c1` (single isomer, unassigned) [Example 185, (R*)-(2-chloro-3-(trifluoromethyl)phenyl)(4-methyl-1-(4-methylpyridin-2-yl)-6,7-dihydro-1H-[1,2,3]triazolo[4,5-c]pyridin-5(4H)-yl)methanone], `Cc1c(C(=O)N2CCc3c(nnn3-c3ncccn3)[C@H]2C)cccc1C(F)(F)F` (single isomer, unassigned) [Example 188, (R*)-(4-methyl-1-(pyrimidin-2-yl)-6,7-dihydro-1H-[1,2,3]triazolo[4,5-c]pyridin-5(4H)-yl)(2-methyl-3-(trifluoromethyl)phenyl)methanone] is higher in “PBMC 10 μM (% control)” value: −3.7 % control for the first, −0.7 % control for the second.

Compared with `C[C@@H]1c2nnn(-c3ccc(F)cc3)c2C[C@H](C)N1C(=O)c1cccc(C(F)(F)F)c1Cl` [Example 287, (2-chloro-3-(trifluoromethyl)phenyl)((4R,6S)-1-(4-fluorophenyl)-4,6-dimethyl-6,7-dihydro-1H-[1,2,3]triazolo[4,5-c]pyridin-5(4H)-yl)methanone], `C[C@H]1c2nnn(-c3ncc(F)cn3)c2CCN1C(=O)c1cccc(C(F)(F)F)c1F` (single isomer, unassigned) [Example 178, (S*)-(2-fluoro-3-(trifluoromethyl)phenyl)(1-(5-fluoropyrimidin-2-yl)-4-methyl-6,7-dihydro-1H-[1,2,3]triazolo[4,5-c]pyridin-5(4H)-yl)methanone] is lower in “PBMC 10 μM (% control)” value: −4.1 % control for the first, −4.7 % control for the second.
